This test relates to expert panelists (oral evaluation). As to the kind of experiment: Sensory evaluation: oral evaluation of an aqueous solution by expert panelists. It is filed as in vivo, human. The settings on record: 20 ppm, 7 expert panelists, all seven gave this evaluation. The procedure: Oral evaluation of an aqueous solution of 2-(2-l-menthyloxyethyl)ethanol obtained in Example 1 in a concentration of 20 ppm was carried out by 7 expert panelists having 5 years or longer experience.

For `CC(C)[C@@H]1CC[C@@H](C)C[C@H]1OCCOCCO` [2-(2-l-menthyloxyethyl)ethanol], the “cool and refreshing feeling quality (oral evaluation)” value is “excellent cool and refreshing feeling quality”.

The record behind these values is patent US7923585B2, “Menthol derivative and cooling agent composition comprising the same” (Takasago International Corporation, priority 2004, dated 2011).
